Experiments:
Test in all cases: relative viability (nuclei count vs DMSO), 5 days (fraction); higher = more cells survive
[1] = compound: CC(O)(CS(=O)(=O)c1ccc(F)cc1)C(=O)Nc1ccc(C#N)c(C(F)(F)F)c1 [Bicalutamide] + CS(=O)(=O)N1CCN(Cc2cc3nc(-c4cccc5[nH]ncc45)nc(N4CCOCC4)c3s2)CC1 [Pictilisib] (partner 1 µM)
In short: (§1)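 Relative viability is defined as nuclei in treated wells over nuclei in vehicle wells. Duplicate plates were run and medians reported. Lung cancer cell lines in 1536-well plates were dosed by pin tool one day after seeding, with one drug or with a fixed anchor-drug dose plus five library-drug doses (not always all listed) in √10 steps, and nuclei were counted after 5 days.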

[2] = compound: C(C(=O)C(=O)O)Br [Bromopyruvate] + CCNC(=O)c1noc(-c2cc(C(C)C)c(O)cc2O)c1-c1ccc(CN2CCOCC2)cc1 [Luminespib] (partner 0.01 µM)
In short: as §1

Bromopyruvate + Olaparib = compound: C(C(=O)C(=O)O)Br [Bromopyruvate] + O=C(c1cc(Cc2n[nH]c(=O)c3ccccc23)ccc1F)N1CCN(C(=O)C2CC2)CC1 [Olaparib] (partner 8 µM)
In short: as §1

Bicalutamide + AZD7762 = compound: CC(O)(CS(=O)(=O)c1ccc(F)cc1)C(=O)Nc1ccc(C#N)c(C(F)(F)F)c1 [Bicalutamide] + NC(=O)Nc1cc(-c2cccc(F)c2)sc1C(=O)N[C@H]1CCCNC1 [AZD7762] (partner 0.2 µM)
In short: as §1

NCI-H2087
relative viability ([1]; first compound 0.08 µM): 0.84
relative viability ([1]; first compound 0.253 µM): 0.891
relative viability ([1]; first compound 0.8 µM): 1.05
relative viability ([1]; first compound 2.53 µM): 0.835
relative viability ([2]; first compound 1 µM): 0.141
relative viability ([2]; first compound 3.162 µM): 0.176
relative viability ([2]; first compound 10 µM): 0.16
relative viability ([2]; first compound 31.62 µM): 0.175
relative viability ([2]; first compound 100 µM): 0.161
relative viability (Bromopyruvate + Olaparib; first compound 1 µM): 0.6
relative viability (Bromopyruvate + Olaparib; first compound 3.162 µM): 0.574
relative viability (Bromopyruvate + Olaparib; first compound 10 µM): 0.391
relative viability (Bromopyruvate + Olaparib; first compound 31.62 µM): 0.573
relative viability (Bromopyruvate + Olaparib; first compound 100 µM): 0.451
relative viability (Bicalutamide + AZD7762; first compound 0.08 µM): 1.29
relative viability (Bicalutamide + AZD7762; first compound 0.253 µM): 1.29
relative viability (Bicalutamide + AZD7762; first compound 0.8 µM): 1.58
relative viability (Bicalutamide + AZD7762; first compound 2.53 µM): 1.26

NCI-H1734
relative viability ([1]; first compound 0.08 µM): 0.438
relative viability ([1]; first compound 0.253 µM): 0.388
relative viability ([1]; first compound 0.8 µM): 0.593
relative viability ([1]; first compound 2.53 µM): 0.431
relative viability ([2]; first compound 1 µM): 0.174
relative viability ([2]; first compound 3.162 µM): 0.225
relative viability ([2]; first compound 10 µM): 0.212
relative viability ([2]; first compound 31.62 µM): 0.175
relative viability ([2]; first compound 100 µM): 0.201
relative viability (Bromopyruvate + Olaparib; first compound 1 µM): 0.68
relative viability (Bromopyruvate + Olaparib; first compound 3.162 µM): 0.585
relative viability (Bromopyruvate + Olaparib; first compound 10 µM): 0.729
relative viability (Bromopyruvate + Olaparib; first compound 31.62 µM): 0.616
relative viability (Bromopyruvate + Olaparib; first compound 100 µM): 0.429
relative viability (Bicalutamide + AZD7762; first compound 0.08 µM): 0.568
relative viability (Bicalutamide + AZD7762; first compound 0.253 µM): 0.439
relative viability (Bicalutamide + AZD7762; first compound 0.8 µM): 0.645
relative viability (Bicalutamide + AZD7762; first compound 2.53 µM): 0.571

EMC-BAC-2
relative viability ([1]; first compound 0.08 µM): 0.517
relative viability ([1]; first compound 0.253 µM): 0.531
relative viability ([1]; first compound 0.8 µM): 0.527
relative viability ([1]; first compound 2.53 µM): 0.456
relative viability ([2]; first compound 1 µM): 0.993
relative viability ([2]; first compound 3.162 µM): 1.24
relative viability ([2]; first compound 10 µM): 1.29
relative viability ([2]; first compound 31.62 µM): 1.22
relative viability ([2]; first compound 100 µM): 1.22
relative viability (Bromopyruvate + Olaparib; first compound 1 µM): 0.499
relative viability (Bromopyruvate + Olaparib; first compound 3.162 µM): 0.481
relative viability (Bromopyruvate + Olaparib; first compound 10 µM): 0.408
relative viability (Bromopyruvate + Olaparib; first compound 31.62 µM): 0.516
relative viability (Bromopyruvate + Olaparib; first compound 100 µM): 0.458
relative viability (Bicalutamide + AZD7762; first compound 0.08 µM): 1.05
relative viability (Bicalutamide + AZD7762; first compound 0.253 µM): 1
relative viability (Bicalutamide + AZD7762; first compound 0.8 µM): 1.09
relative viability (Bicalutamide + AZD7762; first compound 2.53 µM): 0.735

NCI-H596
relative viability ([1]; first compound 0.08 µM): 0.409
relative viability ([1]; first compound 0.253 µM): 0.623
relative viability ([1]; first compound 0.8 µM): 0.404
relative viability ([1]; first compound 2.53 µM): 0.475
relative viability ([2]; first compound 1 µM): 1.05
relative viability ([2]; first compound 3.162 µM): 1.02
relative viability ([2]; first compound 10 µM): 1.14
relative viability ([2]; first compound 31.62 µM): 0.951
relative viability ([2]; first compound 100 µM): 0.282
relative viability (Bromopyruvate + Olaparib; first compound 1 µM): 0.755
relative viability (Bromopyruvate + Olaparib; first compound 3.162 µM): 0.645
relative viability (Bromopyruvate + Olaparib; first compound 10 µM): 0.671
relative viability (Bromopyruvate + Olaparib; first compound 31.62 µM): 0.754
relative viability (Bromopyruvate + Olaparib; first compound 100 µM): 0.782
relative viability (Bicalutamide + AZD7762; first compound 0.08 µM): 1.13
relative viability (Bicalutamide + AZD7762; first compound 0.253 µM): 1.04
relative viability (Bicalutamide + AZD7762; first compound 0.8 µM): 1.08
relative viability (Bicalutamide + AZD7762; first compound 2.53 µM): 1.11

NCI-H650
relative viability ([1]; first compound 0.08 µM): 0.726
relative viability ([1]; first compound 0.253 µM): 0.671
relative viability ([1]; first compound 0.8 µM): 0.951
relative viability ([1]; first compound 2.53 µM): 0.768
relative viability ([2]; first compound 1 µM): 0.887
relative viability ([2]; first compound 3.162 µM): 0.723
relative viability ([2]; first compound 10 µM): 0.791
relative viability ([2]; first compound 31.62 µM): 0.704
relative viability ([2]; first compound 100 µM): 0.724
relative viability (Bromopyruvate + Olaparib; first compound 1 µM): 0.324
relative viability (Bromopyruvate + Olaparib; first compound 3.162 µM): 0.378
relative viability (Bromopyruvate + Olaparib; first compound 10 µM): 0.379
relative viability (Bromopyruvate + Olaparib; first compound 31.62 µM): 0.278
relative viability (Bromopyruvate + Olaparib; first compound 100 µM): 0.206
relative viability (Bicalutamide + AZD7762; first compound 0.08 µM): 0.847
relative viability (Bicalutamide + AZD7762; first compound 0.253 µM): 1.09
relative viability (Bicalutamide + AZD7762; first compound 0.8 µM): 1.21
relative viability (Bicalutamide + AZD7762; first compound 2.53 µM): 0.886

NCI-H1792
relative viability ([1]; first compound 0.08 µM): 0.299
relative viability ([1]; first compound 0.253 µM): 0.224
relative viability ([1]; first compound 0.8 µM): 0.284
relative viability ([1]; first compound 2.53 µM): 0.245
relative viability ([2]; first compound 1 µM): 0.664
relative viability ([2]; first compound 3.162 µM): 0.487
relative viability ([2]; first compound 10 µM): 0.53
relative viability ([2]; first compound 31.62 µM): 0.573
relative viability ([2]; first compound 100 µM): 0.423
relative viability (Bromopyruvate + Olaparib; first compound 1 µM): 0.0016
relative viability (Bromopyruvate + Olaparib; first compound 3.162 µM): 0.469
relative viability (Bromopyruvate + Olaparib; first compound 10 µM): 0.532
relative viability (Bromopyruvate + Olaparib; first compound 31.62 µM): 0.582
relative viability (Bromopyruvate + Olaparib; first compound 100 µM): 0.68
relative viability (Bicalutamide + AZD7762; first compound 0.08 µM): 0.756
relative viability (Bicalutamide + AZD7762; first compound 0.253 µM): 0.522
relative viability (Bicalutamide + AZD7762; first compound 0.8 µM): 0.741
relative viability (Bicalutamide + AZD7762; first compound 2.53 µM): 0.644

ChaGo-K-1
relative viability ([1]; first compound 0.08 µM): 0.818
relative viability ([1]; first compound 0.253 µM): 0.606
relative viability ([1]; first compound 0.8 µM): 0.892
relative viability ([1]; first compound 2.53 µM): 0.523
relative viability ([2]; first compound 1 µM): 0.565
relative viability ([2]; first compound 3.162 µM): 0.697
relative viability ([2]; first compound 10 µM): 0.646
relative viability ([2]; first compound 31.62 µM): 0.705
relative viability ([2]; first compound 100 µM): 0.417
relative viability (Bromopyruvate + Olaparib; first compound 1 µM): 0.417
relative viability (Bromopyruvate + Olaparib; first compound 3.162 µM): 0.466
relative viability (Bromopyruvate + Olaparib; first compound 10 µM): 0.431
relative viability (Bromopyruvate + Olaparib; first compound 31.62 µM): 0.344
relative viability (Bromopyruvate + Olaparib; first compound 100 µM): 0.301
relative viability (Bicalutamide + AZD7762; first compound 0.08 µM): 0.883
relative viability (Bicalutamide + AZD7762; first compound 0.253 µM): 0.792
relative viability (Bicalutamide + AZD7762; first compound 0.8 µM): 0.944
relative viability (Bicalutamide + AZD7762; first compound 2.53 µM): 0.858

LOU-NH91
relative viability ([1]; first compound 0.08 µM): 0.537
relative viability ([1]; first compound 0.253 µM): 0.471
relative viability ([1]; first compound 0.8 µM): 0.549
relative viability ([1]; first compound 2.53 µM): 0.491
relative viability ([2]; first compound 1 µM): 0.321
relative viability ([2]; first compound 3.162 µM): 0.316
relative viability ([2]; first compound 10 µM): 0.372
relative viability ([2]; first compound 31.62 µM): 0.348
relative viability ([2]; first compound 100 µM): 0.321
relative viability (Bromopyruvate + Olaparib; first compound 1 µM): 1
relative viability (Bromopyruvate + Olaparib; first compound 3.162 µM): 0.902
relative viability (Bromopyruvate + Olaparib; first compound 10 µM): 0.974
relative viability (Bromopyruvate + Olaparib; first compound 31.62 µM): 0.95
relative viability (Bromopyruvate + Olaparib; first compound 100 µM): 1.01
relative viability (Bicalutamide + AZD7762; first compound 0.08 µM): 0.725
relative viability (Bicalutamide + AZD7762; first compound 0.253 µM): 0.653
relative viability (Bicalutamide + AZD7762; first compound 0.8 µM): 0.793
relative viability (Bicalutamide + AZD7762; first compound 2.53 µM): 0.751

HCC-366
relative viability ([1]; first compound 0.08 µM): 0.124
relative viability ([1]; first compound 0.253 µM): 0.101
relative viability ([1]; first compound 0.8 µM): 0.147
relative viability ([1]; first compound 2.53 µM): 0.0426
relative viability (Bromopyruvate + Olaparib; first compound 1 µM): 0.365
relative viability (Bromopyruvate + Olaparib; first compound 3.162 µM): 0.323
relative viability (Bromopyruvate + Olaparib; first compound 10 µM): 0.345
relative viability (Bromopyruvate + Olaparib; first compound 31.62 µM): 0.321
relative viability (Bromopyruvate + Olaparib; first compound 100 µM): 0.284
relative viability (Bicalutamide + AZD7762; first compound 0.08 µM): 0.392
relative viability (Bicalutamide + AZD7762; first compound 0.253 µM): 0.229
relative viability (Bicalutamide + AZD7762; first compound 0.8 µM): 0.332
relative viability (Bicalutamide + AZD7762; first compound 2.53 µM): 0.281
